Experimental data from US20240158446A1, “CYCLIC COMPOUND HAVING SELECTIVE INHIBITORY ACTION ON KRAS OVER HRAS AND NRAS” (CHUGAI SEIYAKU KABUSHIKI KAISHA, priority 2021, published 2024).
Like-named read-outs stand apart in the source and are kept apart here.

Legend:
[1] = target: GDP-bound KRAS wild-type protein (Homo sapiens, UniProt P01116); experiment: Binding to KRAS by surface plasmon resonance (SPR), Single Cycle Kinetics
[2] = target: GDP-bound NRAS wild-type protein (Homo sapiens, UniProt P01111); experiment: Binding to NRAS by surface plasmon resonance (SPR), Single Cycle Kinetics; conditions: for NRAS/KRAS (ratio of KD value for NRAS to KD value for KRAS) / ratio of the KD value with respect to GDP-bound NRAS wild-type protein to the KD value with respect to KRAS: SPR; for NRAS/KRAS (ratio of KD value for NRAS to KD value for KRAS): GDP-bound NRAS wild-type protein vs GDP-bound KRAS wild-type protein
[3] = target: GDP-bound HRAS wild-type protein (Homo sapiens, UniProt P01112); experiment: Binding to HRAS by surface plasmon resonance (SPR), Single Cycle Kinetics; conditions: for HRAS/KRAS (ratio of KD value for HRAS to KD value for KRAS) / ratio of the KD value with respect to GDP-bound HRAS wild-type protein to the KD value with respect to KRAS: SPR; for HRAS/KRAS (ratio of KD value for HRAS to KD value for KRAS): GDP-bound HRAS wild-type protein vs GDP-bound KRAS wild-type protein
[4] = tested on: human lung cancer strain NCI-H441;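 note: cell proliferation inhibition after four days measured by CellTiter-Glo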
[5] = SPR, Single Cycle Kinetics, GDP-bound KRAS wild-type protein, read-out: KRAS KD
[6] = SPR, Single Cycle Kinetics, 1:1 binding model, GDP-bound KRAS wild-type protein, read-out: KRAS KD
[7] = SPR, Single Cycle Kinetics, 1:1 binding model, read-out: KD value with respect to GDP-bound KRAS wild-type protein
[8] = read-out: NCI-H441 cell proliferation inhibitory activity, 50% proliferation inhibitory concentration (IC50 value), NCI-H441, four days, CellTiter-Glo

Sequence of GDP-bound KRAS wild-type protein (P01116 whole entry): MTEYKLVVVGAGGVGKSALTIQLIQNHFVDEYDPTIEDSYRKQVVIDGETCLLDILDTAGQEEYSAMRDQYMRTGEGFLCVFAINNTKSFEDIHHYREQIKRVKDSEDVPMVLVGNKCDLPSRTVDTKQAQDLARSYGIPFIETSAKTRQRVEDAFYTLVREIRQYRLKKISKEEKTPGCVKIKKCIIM
Sequence of GDP-bound HRAS wild-type protein (P01112 whole entry): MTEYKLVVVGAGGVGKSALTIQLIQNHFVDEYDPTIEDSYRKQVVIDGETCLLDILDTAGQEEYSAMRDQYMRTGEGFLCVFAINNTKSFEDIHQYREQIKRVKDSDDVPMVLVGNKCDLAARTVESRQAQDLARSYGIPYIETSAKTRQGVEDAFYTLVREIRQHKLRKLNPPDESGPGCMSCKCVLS
Sequence of GDP-bound NRAS wild-type protein (P01111 whole entry): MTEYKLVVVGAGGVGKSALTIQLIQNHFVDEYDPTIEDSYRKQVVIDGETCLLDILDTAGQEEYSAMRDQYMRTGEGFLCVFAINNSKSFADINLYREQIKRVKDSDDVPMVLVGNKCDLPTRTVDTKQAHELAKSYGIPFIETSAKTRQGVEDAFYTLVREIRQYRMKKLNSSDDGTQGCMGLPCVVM

Compound | Kd [1, 5] | IC50 [4] | Kd [1, 6] | NRAS/KRAS (ratio of KD value for NRAS to KD value for KRAS) [2] | HRAS/KRAS (ratio of KD value for HRAS to KD value for KRAS) [3] | NRAS/KRAS (ratio of KD value for NRAS to KD value for KRAS) ([2]; KD ratio class) | HRAS/KRAS (ratio of KD value for HRAS to KD value for KRAS) ([3]; KD ratio class) | also measured
CCO[C@@H]1C[C@H]2C(=O)NC3(CCC3)C(=O)N(C)[C@@H](C(CC)CC)C(=O)N(C)[C@H](C(=O)N(C)C)CC(=O)N(C)[C@@H](COC)C(=O)N[C@@H]([C@@H](C)CC)C(=O)N(C)CC(=O)N(C)[C@H]3C/C=C\CCN(C3=O)[C@@H](Cc3ccc(C(F)(F)F)cc3)C(=O)N(C)CC(=O)N[C@@H](CCc3ccc(C(F)(F)F)c(OC)c3)C(=O)N2C1 [PP1213] |  | 40.4 nM | 0.18 nM |  |  | AA (a compound having 20 or more is denoted as AA) | A (a compound having 10 or more and less than 20 is denoted as A) | 
CCO[C@@H]1C[C@H]2C(=O)NC3(CC(C)(C)C3)C(=O)N(C)[C@@H](C(CC)CC)C(=O)N(C)[C@H](C(=O)N(C)C)CC(=O)N(C)[C@@H](C(C)C)C(=O)N[C@@H]([C@@H](C)CC)C(=O)N(C)CC(=O)N(C)[C@H]3C/C=C\CCN(C3=O)[C@@H](CC3CCC(F)(F)CC3)C(=O)N(C)CC(=O)N[C@@H](CCc3ccc(C(F)(F)F)c(Cl)c3)C(=O)N2C1 [PP2492] | 2.4 nM | 76.7 nM |  | AA (a compound having 20 or more is denoted as AA) | A (a compound having 10 or more and less than 20 is denoted as A) |  |  | 
CC[C@H](C)[C@@H]1NC(=O)[C@H](CC)N(C)C(=O)C[C@@H](C(=O)N(C)C)N(C)C(=O)[C@H](C2CCCC2)N(C)C(=O)C2(CCC2)NC(=O)[C@@H]2CC(F)(F)CN2C(=O)[C@H](CCc2cc(F)c(C(F)(F)F)c(F)c2)NC(=O)CN(C)C(=O)[C@H](CC2CCC(F)(F)CC2)N2CC/C=C\C[C@@H](C2=O)N(C)C(=O)CN(C)C1=O [PP1448, (2S,8S,14S,20S,23S,27S,30S,36S,38Z)-20-cyclopentyl-2-[(4,4-difluorocyclohexyl)methyl]-8-[2-[3,5-difluoro-4-(trifluoromethyl)phenyl]ethyl]-27-ethyl-12,12-difluoro-N,N,4,19,22,26,32,35-octamethyl-30-[(1S)-1-methylpropyl]-3,6,9,15,18,21,25,28,31,34,42-undecaoxo-spiro[1,4,7,10,16,19,22,26,29,32,35-undecazatricyclo[34.5.1.0^10,14]dotetracont-38-ene-17,1′-cyclobutane]-23-carboxamide] |  | 8.3 nM | 0.059 nM |  |  | A (a compound having 10 or more and less than 20 is denoted as A) | A (a compound having 10 or more and less than 20 is denoted as A) | 

Second part, led by results:

Kd [1, 5] | IC50 [4] | Kd [1, 6] | Compound | NRAS/KRAS (ratio of KD value for NRAS to KD value for KRAS) [2] | HRAS/KRAS (ratio of KD value for HRAS to KD value for KRAS) [3] | NRAS/KRAS (ratio of KD value for NRAS to KD value for KRAS) ([2]; KD ratio class) | HRAS/KRAS (ratio of KD value for HRAS to KD value for KRAS) ([3]; KD ratio class) | also measured
0.31 nM | 48 nM |  | CCCO[C@H](C)[C@@H]1NC(=O)[C@H](COCC)N(C)C(=O)C[C@@H](C(=O)N(C)CC)N(C)C(=O)[C@H](C2CCCC2)N(C)C(=O)C2(CC(C)(C)C2)NC(=O)[C@@H]2C[C@H](C)CN2C(=O)[C@H](CCc2cc(F)c(C(F)(F)F)c(F)c2)NC(=O)CN(C)C(=O)[C@H](Cc2ccc(C)cc2)N2CC/C=C\C[C@@H](C2=O)N(C)C(=O)CN(C)C1=O [PP2426] | AA (a compound having 20 or more is denoted as AA) | A (a compound having 10 or more and less than 20 is denoted as A) |  |  | 
 | 53.5 nM | 0.13 nM | CCO[C@@H]1C[C@H]2C(=O)NC3(CCC3)C(=O)N(C)[C@@H](C3CCCC3)C(=O)N(C)[C@H](C(=O)N(C)C)CC(=O)N(C)[C@@H](CC)C(=O)N[C@@H](C(C)C)C(=O)N(C)CC(=O)N(C)[C@H]3C/C=C\CCN(C3=O)[C@@H](Cc3ccc(C(F)(F)F)cc3)C(=O)N(C)CC(=O)N[C@@H](CCc3cc(F)c(C(F)(F)F)c(F)c3)C(=O)N2C1 [PP1270] |  |  | A (a compound having 10 or more and less than 20 is denoted as A) | B (a compound having 3 or more and less than 10 is denoted as B) | 
0.17 nM |  |  | CCC[C@H]1C(=O)N[C@@H]([C@@H](C)CC)C(=O)N(C2CC2)CC(=O)N(C)[C@H]2C/C=C\CCN(C2=O)[C@@H](Cc2ccc(C)cc2)C(=O)N(C)CC(=O)N[C@@H](CCc2cc(F)c(C(F)(F)F)c(F)c2)C(=O)N2C[C@H](OCC)C[C@H]2C(=O)N(C)C2(CCC2)C(=O)N(C)[C@@H](C2CCCC2)C(=O)N(C)[C@H](C(=O)N2CCCC2)CC(=O)N1C [PP3113, (2S,8S,12R,14S,20S,23S,27S,30S,36S,38Z)-20-cyclopentyl-32-cyclopropyl-8-[2-[3,5-difluoro-4-(trifluoromethyl)phenyl]ethyl]-12-ethoxy-4,16,19,22,26,35-hexamethyl-30-[(1S)-1-methylpropyl]-27-propyl-2-(p-tolylmethyl)-23-(pyrrolidine-1-carbonyl)spiro[1,4,7,10,16,19,22,26,29,32,35-undecazatricyclo[34.5.1.0^10,14]dotetracont-38-ene-17,1′-cyclobutane]-3,6,9,15,18,21,25,28,31,34,42-undecone] | A (a compound having 10 or more and less than 20 is denoted as A) | A (a compound having 10 or more and less than 20 is denoted as A) |  |  | Kd [1, 7]: 0.17 nM; ratio of the KD value with respect to GDP-bound NRAS wild-type protein to the KD value with respect to KRAS [2]: A (a compound having 10 or more and less than 20 is denoted as A); ratio of the KD value with respect to GDP-bound HRAS wild-type protein to the KD value with respect to KRAS [3]: A (a compound having 10 or more and less than 20 is denoted as A); IC50 [4, 8]: 6.1 nM
 | 39.3 nM |  | CCC[C@H]1C(=O)N[C@@H]([C@@H](C)CC)C(=O)N(C)CC(=O)N(C)[C@H]2C/C=C\CCN(C2=O)[C@@H](Cc2ccc(C)cc2)C(=O)N(C)CC(=O)N[C@@H](CCc2cc(F)c(C(F)(F)F)c(F)c2)C(=O)N2C[C@H](OCC)C[C@H]2C(=O)NC2(CC(C)(C)C2)C(=O)N(C)[C@@H](CC2CCC2)C(=O)N(C)[C@H](C(=O)N(C)C)CC(=O)N1C [PP2751] |  |  |  |  | Kd ([1]; SPR Single Cycle Kinetics, GDP-bound KRAS wild-type protein, 1:1 binding model, read-out: KRAS KD): 0.85 nM; NRAS/KRAS (ratio of KD value with respect to GDP-bound NRAS wild-type protein to KD value with respect to KRAS) ([2]; SPR KD ratio NRAS/KRAS, class symbols): A (a compound having 10 or more and less than 20 is denoted as A); HRAS/KRAS (ratio of KD value with respect to GDP-bound HRAS wild-type protein to KD value with respect to KRAS) ([3]; SPR KD ratio HRAS/KRAS, class symbols): A (a compound having 10 or more and less than 20 is denoted as A)
3.1 nM |  |  | CCC[C@H]1C(=O)N[C@@H]([C@@H](C)CC)C(=O)N(C2CC2)CC(=O)N(C)[C@H]2C/C=C\CCN(C2=O)[C@@H](Cc2ccc(C(F)(F)F)cc2)C(=O)N(C)CC(=O)N[C@@H](CCc2cc(F)c(C(F)(F)F)c(F)c2)C(=O)N2C[C@H](OCC)C[C@H]2C(=O)N(C)C2(CCC2)C(=O)N(C)[C@@H](C2CCCC2)C(=O)N(C)[C@H](C(=O)N2CCCC2)CC(=O)N1C [PP3112] | A (a compound having 10 or more and less than 20 is denoted as A) | B (a compound having 3 or more and less than 10 is denoted as B) |  |  | Kd [1, 7]: 3.1 nM; ratio of the KD value with respect to GDP-bound NRAS wild-type protein to the KD value with respect to KRAS [2]: A (a compound having 10 or more and less than 20 is denoted as A); ratio of the KD value with respect to GDP-bound HRAS wild-type protein to the KD value with respect to KRAS [3]: B (a compound having 3 or more and less than 10 is denoted as B); IC50 [4, 8]: 32.4 nM
